Key:
D(3) dopamine receptor = D(3) dopamine receptor (Homo sapiens, UniProt P35462)
[1] = target: 5-hydroxytryptamine receptor 2A (Homo sapiens, UniProt P28223)
Histamine H1 receptor = Histamine H1 receptor (Cavia porcellus, UniProt P31389)
Histamine H2 receptor = Histamine H2 receptor (Cavia porcellus, UniProt P47747)
[2] = target: Gamma-aminobutyric acid (GABA) B receptor 1 (Rattus norvegicus, UniProt Q6MFX8)
[3] = target: 5-hydroxytryptamine receptor 7 (Homo sapiens, UniProt P34969)
D(4) dopamine receptor = D(4) dopamine receptor (Homo sapiens, UniProt P21917)
[4] = target: 5-hydroxytryptamine receptor 3A (Mus musculus, UniProt P23979)
Chain of 5-hydroxytryptamine receptor 3A (Mus musculus, UniProt P23979) (P23979 as listed by the source): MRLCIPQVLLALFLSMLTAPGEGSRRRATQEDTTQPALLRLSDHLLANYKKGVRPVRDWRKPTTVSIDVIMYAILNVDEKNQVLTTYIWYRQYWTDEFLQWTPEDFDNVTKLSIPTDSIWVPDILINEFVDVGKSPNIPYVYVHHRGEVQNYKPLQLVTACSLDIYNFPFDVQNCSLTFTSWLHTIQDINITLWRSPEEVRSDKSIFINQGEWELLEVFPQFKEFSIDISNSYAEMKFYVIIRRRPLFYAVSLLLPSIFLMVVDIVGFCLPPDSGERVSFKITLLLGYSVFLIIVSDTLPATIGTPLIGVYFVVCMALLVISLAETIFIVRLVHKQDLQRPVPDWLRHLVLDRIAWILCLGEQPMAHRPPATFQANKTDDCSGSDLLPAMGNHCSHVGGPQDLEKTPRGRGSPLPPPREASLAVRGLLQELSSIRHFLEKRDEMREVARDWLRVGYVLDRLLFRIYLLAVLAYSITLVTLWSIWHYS

[5] = target: 5-hydroxytryptamine receptor 3A (Homo sapiens, UniProt P46098)
[6] = target: Muscarinic acetylcholine receptor M3 (Homo sapiens, UniProt P20309)
Chain of Muscarinic acetylcholine receptor M3 (P20309 whole entry): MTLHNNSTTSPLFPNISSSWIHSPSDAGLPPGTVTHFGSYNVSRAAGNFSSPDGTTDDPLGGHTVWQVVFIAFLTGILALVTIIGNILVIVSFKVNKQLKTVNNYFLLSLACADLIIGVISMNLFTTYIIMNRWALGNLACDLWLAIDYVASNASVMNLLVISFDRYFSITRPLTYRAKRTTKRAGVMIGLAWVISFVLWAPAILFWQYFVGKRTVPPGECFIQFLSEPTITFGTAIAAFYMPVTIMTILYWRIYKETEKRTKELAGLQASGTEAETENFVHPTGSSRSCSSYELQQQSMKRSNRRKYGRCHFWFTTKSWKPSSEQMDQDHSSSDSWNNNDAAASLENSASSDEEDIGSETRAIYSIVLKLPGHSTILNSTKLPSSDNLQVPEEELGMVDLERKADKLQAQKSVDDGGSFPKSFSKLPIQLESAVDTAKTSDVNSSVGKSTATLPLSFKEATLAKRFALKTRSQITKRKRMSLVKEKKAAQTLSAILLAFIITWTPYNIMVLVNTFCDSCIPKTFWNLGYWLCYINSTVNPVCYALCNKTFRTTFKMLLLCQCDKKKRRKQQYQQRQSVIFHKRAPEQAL

D(2) dopamine receptor = D(2) dopamine receptor (Homo sapiens, UniProt P14416)
[7] = target: Alpha-1A adrenergic receptor (Rattus norvegicus, UniProt P43140)
Chain of Alpha-1A adrenergic receptor (P43140 whole entry): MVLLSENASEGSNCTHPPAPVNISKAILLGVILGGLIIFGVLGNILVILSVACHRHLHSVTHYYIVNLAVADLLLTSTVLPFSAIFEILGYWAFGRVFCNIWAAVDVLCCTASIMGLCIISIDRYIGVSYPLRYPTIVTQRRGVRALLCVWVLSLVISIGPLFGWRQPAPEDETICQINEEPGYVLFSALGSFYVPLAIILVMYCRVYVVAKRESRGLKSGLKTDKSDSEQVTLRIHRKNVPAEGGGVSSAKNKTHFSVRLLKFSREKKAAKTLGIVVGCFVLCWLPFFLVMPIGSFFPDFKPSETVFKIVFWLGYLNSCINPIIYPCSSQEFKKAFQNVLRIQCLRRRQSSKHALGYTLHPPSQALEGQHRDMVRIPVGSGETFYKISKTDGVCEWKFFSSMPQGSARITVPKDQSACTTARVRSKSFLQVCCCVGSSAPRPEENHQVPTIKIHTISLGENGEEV

D(1A) dopamine receptor = D(1A) dopamine receptor (Homo sapiens, UniProt P21728)
[8] = target: Muscarinic acetylcholine receptor M2 (Homo sapiens, UniProt P08172)
Chain of Muscarinic acetylcholine receptor M2 (P08172 whole entry): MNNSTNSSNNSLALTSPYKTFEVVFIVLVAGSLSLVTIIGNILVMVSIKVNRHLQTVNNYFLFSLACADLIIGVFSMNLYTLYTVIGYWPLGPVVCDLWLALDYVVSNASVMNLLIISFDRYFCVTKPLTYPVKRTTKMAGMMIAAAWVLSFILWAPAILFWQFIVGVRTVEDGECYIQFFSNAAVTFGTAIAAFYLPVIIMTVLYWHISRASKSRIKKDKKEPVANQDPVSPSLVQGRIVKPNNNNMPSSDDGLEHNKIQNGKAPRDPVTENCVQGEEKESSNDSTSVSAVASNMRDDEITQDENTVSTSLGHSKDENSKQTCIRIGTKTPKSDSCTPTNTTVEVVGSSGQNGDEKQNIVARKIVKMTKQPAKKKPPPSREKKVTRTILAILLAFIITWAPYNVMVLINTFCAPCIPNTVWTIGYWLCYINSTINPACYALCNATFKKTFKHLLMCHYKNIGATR

[9] = target: Muscarinic acetylcholine receptor M1 (Homo sapiens, UniProt P11229)
[10] = target: Gamma-aminobutyric acid receptor subunit alpha-1 (Rattus norvegicus, UniProt P62813)
Chain of Gamma-aminobutyric acid receptor subunit alpha-1 (P62813 whole entry): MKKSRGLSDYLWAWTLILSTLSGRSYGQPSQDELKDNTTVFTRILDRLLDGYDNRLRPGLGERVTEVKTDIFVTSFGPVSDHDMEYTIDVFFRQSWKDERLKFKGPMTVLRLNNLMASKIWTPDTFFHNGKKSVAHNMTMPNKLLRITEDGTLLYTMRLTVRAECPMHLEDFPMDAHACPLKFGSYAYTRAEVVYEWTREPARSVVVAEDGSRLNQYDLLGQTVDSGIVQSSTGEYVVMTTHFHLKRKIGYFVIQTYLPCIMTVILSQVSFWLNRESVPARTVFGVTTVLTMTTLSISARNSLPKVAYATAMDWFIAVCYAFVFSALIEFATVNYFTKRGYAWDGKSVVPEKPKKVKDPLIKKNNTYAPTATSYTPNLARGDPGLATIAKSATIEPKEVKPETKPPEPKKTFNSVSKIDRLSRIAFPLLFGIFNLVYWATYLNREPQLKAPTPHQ

[11] = target: Alpha-2C adrenergic receptor (Rattus norvegicus, UniProt P22086)
Chain of Alpha-2C adrenergic receptor (P22086 whole entry): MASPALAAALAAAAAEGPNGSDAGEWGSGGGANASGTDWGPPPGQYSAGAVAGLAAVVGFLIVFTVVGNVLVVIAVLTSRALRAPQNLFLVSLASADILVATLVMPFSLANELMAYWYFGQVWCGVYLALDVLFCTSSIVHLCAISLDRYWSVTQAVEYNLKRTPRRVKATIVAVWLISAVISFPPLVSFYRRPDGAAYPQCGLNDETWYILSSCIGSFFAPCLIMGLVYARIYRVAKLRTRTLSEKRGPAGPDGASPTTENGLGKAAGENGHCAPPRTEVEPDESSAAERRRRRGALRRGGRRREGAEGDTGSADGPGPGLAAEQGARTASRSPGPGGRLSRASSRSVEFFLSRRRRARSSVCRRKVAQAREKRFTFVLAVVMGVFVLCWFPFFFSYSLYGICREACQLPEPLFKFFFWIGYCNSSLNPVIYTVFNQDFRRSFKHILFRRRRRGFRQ

[12] = target: Muscarinic acetylcholine receptor M4 (Homo sapiens, UniProt P08173)
Hrh3 protein = Hrh3 protein (Rattus norvegicus, UniProt Q5PPG3)
Chain of Hrh3 protein (Q5PPG3 whole entry): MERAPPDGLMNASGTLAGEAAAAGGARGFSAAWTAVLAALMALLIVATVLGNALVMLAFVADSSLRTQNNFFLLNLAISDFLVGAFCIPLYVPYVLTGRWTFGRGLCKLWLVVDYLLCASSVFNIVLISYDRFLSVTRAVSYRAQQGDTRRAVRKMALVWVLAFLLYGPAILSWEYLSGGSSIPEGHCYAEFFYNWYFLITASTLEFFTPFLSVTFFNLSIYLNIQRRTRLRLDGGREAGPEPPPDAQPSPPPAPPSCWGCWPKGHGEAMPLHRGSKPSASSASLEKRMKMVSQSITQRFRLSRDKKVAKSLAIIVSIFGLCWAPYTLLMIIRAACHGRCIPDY

[13] = target: Muscarinic acetylcholine receptor M5 (Homo sapiens, UniProt P08912)
Chain of Muscarinic acetylcholine receptor M5 (P08912 whole entry): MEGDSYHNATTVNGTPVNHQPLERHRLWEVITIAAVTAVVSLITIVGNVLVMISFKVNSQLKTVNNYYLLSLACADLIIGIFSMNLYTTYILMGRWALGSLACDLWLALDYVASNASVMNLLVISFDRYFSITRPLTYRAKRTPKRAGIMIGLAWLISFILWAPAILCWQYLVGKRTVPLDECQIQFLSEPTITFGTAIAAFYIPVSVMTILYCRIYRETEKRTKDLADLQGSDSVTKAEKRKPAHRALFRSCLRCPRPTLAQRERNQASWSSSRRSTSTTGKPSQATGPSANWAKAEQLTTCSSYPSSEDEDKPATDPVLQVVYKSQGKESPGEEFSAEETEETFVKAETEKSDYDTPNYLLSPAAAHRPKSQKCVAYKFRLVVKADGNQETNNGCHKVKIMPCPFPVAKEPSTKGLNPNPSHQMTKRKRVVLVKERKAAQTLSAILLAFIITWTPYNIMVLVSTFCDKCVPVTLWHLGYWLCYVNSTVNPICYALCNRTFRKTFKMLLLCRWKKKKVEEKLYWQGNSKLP

[14] = target: 5-hydroxytryptamine receptor 2C (Homo sapiens, UniProt P28335)
Chain of 5-hydroxytryptamine receptor 2C (P28335 whole entry): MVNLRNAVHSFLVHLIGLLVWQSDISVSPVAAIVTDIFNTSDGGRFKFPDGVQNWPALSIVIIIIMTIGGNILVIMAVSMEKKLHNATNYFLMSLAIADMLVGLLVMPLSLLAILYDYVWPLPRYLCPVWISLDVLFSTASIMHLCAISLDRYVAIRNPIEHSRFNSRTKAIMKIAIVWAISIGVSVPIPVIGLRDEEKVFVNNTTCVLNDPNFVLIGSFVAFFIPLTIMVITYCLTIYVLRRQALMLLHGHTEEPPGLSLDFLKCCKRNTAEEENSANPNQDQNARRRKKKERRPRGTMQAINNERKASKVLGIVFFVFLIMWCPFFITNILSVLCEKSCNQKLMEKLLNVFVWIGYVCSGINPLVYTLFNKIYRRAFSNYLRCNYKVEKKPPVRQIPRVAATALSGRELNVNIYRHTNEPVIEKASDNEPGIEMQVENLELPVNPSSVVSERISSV

Chain of 5-hydroxytryptamine receptor 7 (P34969 whole entry): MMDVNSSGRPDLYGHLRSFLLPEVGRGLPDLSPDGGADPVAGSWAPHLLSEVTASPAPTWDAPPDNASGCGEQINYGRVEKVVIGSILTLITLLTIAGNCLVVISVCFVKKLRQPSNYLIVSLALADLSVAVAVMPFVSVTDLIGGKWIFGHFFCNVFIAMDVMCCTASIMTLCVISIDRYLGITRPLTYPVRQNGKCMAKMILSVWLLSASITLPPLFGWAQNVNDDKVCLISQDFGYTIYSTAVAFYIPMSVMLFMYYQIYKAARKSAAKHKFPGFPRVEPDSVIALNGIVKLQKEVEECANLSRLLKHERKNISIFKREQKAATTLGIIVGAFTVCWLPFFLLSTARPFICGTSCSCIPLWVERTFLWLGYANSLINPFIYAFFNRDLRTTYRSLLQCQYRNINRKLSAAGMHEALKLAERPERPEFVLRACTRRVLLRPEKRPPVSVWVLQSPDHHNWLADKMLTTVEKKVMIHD

Ki (D(3) dopamine receptor): 2.5 nM
Ki [1]: 1.5 nM
Ki (Histamine H1 receptor): 9.3 nM
Ki (Histamine H2 receptor): 351 nM
Ki [2]: > 10000 nM
Ki [3]: 22 nM
Ki (D(4) dopamine receptor): 5.3 nM
Ki [4]: 75 nM
Ki [5]: 2940 nM
Ki [6]: 32 nM
Ki (D(2) dopamine receptor): 5.8 nM
Ki [7]: 2.3 nM
Ki (D(1A) dopamine receptor): 3.8 nM
Ki [8]: 42 nM
Ki [9]: 13 nM
Ki [10]: > 10000 nM
Ki [11]: 1320 nM
Ki [12]: 12 nM
Ki (Hrh3 protein): > 10000 nM
Ki [13]: 35 nM
Ki [14]: 12 nM
Structure (SMILES): CC(CN(C)C)CN1c2ccccc2Sc2ccc(C#N)cc21 (stereo unspecified) [CAS_62865]
